Read-outs that look alike come from different tables or passages of the source.
Legend:
expanded OPCs = assay: cells; conditions: for viability at 0.1 µM / viability at 1 µM / viability at 10 µM: Rattus norvegicus, 72 h
Procedure, shortened: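 Toxicity screen: compounds added at 0.1, 1 and 10 µM to PDGF-AA-expanded OPCs in 96-well plates, 3-day incubation at 37 °C, 10% CO2, then alamarBlue 1:10 for 4 h with fluorescence readout. Results set screening doses of 10/2, 2/0.4 or 0.4/0.08 µM.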

[1] = system: acutely dissociated and purified rat OPCs; assay: Acute OL differentiation assay (MBP expression/cell, immunofluorescent image quantification); type: cell-based; conditions: sheet "All OLga data"
Procedure, shortened: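 This acute differentiation assay used purified rat OPCs from postnatal day 6–7 pups, seeded into PDL/laminin-coated 96-well plates in differentiation medium lacking PDGF and FGF. Compounds were applied in quadruplicate after a 1–2 h preincubation at 37 °C, 10 % CO2, with 0.1 % DMSO negative and 40 ng/ml T3 positive controls in eight wells. After fixation on DIV4, anti-MBP immunofluorescence images yielded MBP expression/cell.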

[2] = read-out: 0.1 µM (% DMSO), alamarBlue viability, NCC library compound at 0.1 µM, sheet "All Tox data"
[3] = read-out: 1 µM (% DMSO), alamarBlue viability, NCC library compound at 1 µM, sheet "All Tox data"
[4] = read-out: 10 µM (% DMSO), alamarBlue viability, NCC library compound at 10 µM, sheet "All Tox data"
[5] = Rattus norvegicus, test compound at 0.4 uM, NCC library screen, relative to quetiapine, read-out: 0.4 uM (% Quet)
[6] = Rattus norvegicus, test compound at 2 uM, NCC library screen, relative to quetiapine, read-out: 2 uM (% Quet)
[7] = read-out: 0.1 µM (% DMSO), alamarBlue viability of expanded OPCs, compound at 0.1 µM, sheet All Tox data
[8] = read-out: 1 µM (% DMSO), alamarBlue viability of expanded OPCs, compound at 1 µM, sheet All Tox data
[9] = read-out: 10 µM (% DMSO), alamarBlue viability of expanded OPCs, compound at 10 µM, sheet All Tox data
[10] = Rattus norvegicus, 2 uM test compound, relative to quetiapine, read-out: OL differentiation, 2 uM (% Quet)
[11] = Rattus norvegicus, 10 uM test compound, relative to quetiapine, read-out: OL differentiation, 10 uM (% Quet)
[12] = test compound at 2 uM, NCC library screen, relative to quetiapine
[13] = alamarBlue viability of expanded OPCs, compound at 0.1 µM, relative to DMSO control
[14] = alamarBlue viability of expanded OPCs, compound at 1 µM, relative to DMSO control
[15] = alamarBlue viability of expanded OPCs, compound at 10 µM, relative to DMSO control
[16] = Rattus norvegicus, test compound at 10 uM, NCC library screen, relative to quetiapine, read-out: 10 uM (% Quet)

CCCN1C[C@H](CSC)C[C@@H]2c3cccc4[nH]cc(c34)C[C@H]21 [Pergolide]
viability at 0.1 µM (expanded OPCs; [2]): 100% | viability at 1 µM (expanded OPCs; [3]): 83.6% | viability at 10 µM (expanded OPCs; [4]): 41% | activation at 0.4 µM [1, 5]: -8.9% | activation at 2 µM [1, 6]: -15.7%

C[C@@H](O)[C@H]1C(=O)N2C(C(=O)O)=C(S[C@@H]3CN[C@H](C(=O)N(C)C)C3)[C@H](C)[C@H]12 [Meropenem]
viability at 0.1 µM (expanded OPCs; [7]): 95.8% | viability at 1 µM (expanded OPCs; [8]): 98.1% | viability at 10 µM (expanded OPCs; [9]): 102% | activation at 2 µM [1, 10]: -4.2% | activation at 10 µM [1, 11]: 2.8%

C[N+]1(CCC(C(N)=O)(c2ccccc2)c2ccccc2)CCCCC1 [Fenpiverinium]
viability at 0.1 µM (expanded OPCs; [7]): 93.3% | viability at 1 µM (expanded OPCs; [8]): 96.9% | viability at 10 µM (expanded OPCs; [9]): 101% | activation at 2 µM [1, 10]: -23.8% | activation at 10 µM [1, 11]: -19.5%

CC[C@H](C)C(=O)O[C@H]1CCC=C2C=C[C@H](C)[C@H](CC[C@@H]3C[C@@H](O)CC(=O)O3)[C@H]21 [Mevistatin]
0.1 µM (% DMSO) (expanded OPCs; alamarBlue viability, NCC library compound at 0.1 µM, sheet "All Tox data"): 135.8 % DMSO | 1 µM (% DMSO) (expanded OPCs; alamarBlue viability, NCC library compound at 1 µM, sheet "All Tox data"): 96.3 % DMSO | 10 µM (% DMSO) (expanded OPCs; alamarBlue viability, NCC library compound at 10 µM, sheet "All Tox data"): 54.8 % DMSO | 0.4 uM (% Quet) ([1]; test compound at 0.4 uM, NCC library screen, relative to quetiapine): -87.3 % Quet | 2 uM (% Quet) [1, 12]: -111.9 % Quet

CCc1c2c(nc3ccc(OC(=O)N4CCC(N5CCCCC5)CC4)cc13)-c1cc3c(c(=O)n1C2)COC(=O)[C@]3(O)CC [Irinotecan]
viability at 0.1 µM (expanded OPCs; [2]): 82.8% | viability at 1 µM (expanded OPCs; [3]): 49.7% | viability at 10 µM (expanded OPCs; [4]): 27.9% | activation at 0.08 µM ([1]; Rattus norvegicus, test compound at 0.08 uM, NCC library screen, relative to quetiapine, read-out: 0.08 uM (% Quet)): -38.4% | activation at 0.4 µM [1, 5]: -140%

O=C(CCCN1CC=C(n2c(=O)[nH]c3ccccc32)CC1)c1ccc(F)cc1 [Droperidol]
viability at 0.1 µM (expanded OPCs; [2]): 90.8% | viability at 1 µM (expanded OPCs; [3]): 97.2% | viability at 10 µM (expanded OPCs; [4]): 71.6% | activation at 2 µM [1, 10]: 7.3% | activation at 10 µM [1, 11]: -13.2%

CC(=O)O[C@]1(C(C)=O)CC[C@H]2[C@@H]3C[C@H](C)C4=CC(=O)CC[C@]4(C)[C@H]3CC[C@@]21C [Medroxyprogesterone acetate]
0.1 µM (% DMSO) (expanded OPCs; [13]): 104.2 % DMSO | 1 µM (% DMSO) (expanded OPCs; [14]): 103.1 % DMSO | 10 µM (% DMSO) (expanded OPCs; [15]): 118.4 % DMSO | activation at 2 µM [1, 6]: -30.5% | activation at 10 µM [1, 16]: -36.7%

O=C(O)c1cc2ccccc2c(Cc2c(O)c(C(=O)O)cc3ccccc23)c1O.OCCOCCN1CCN(C(c2ccccc2)c2ccc(Cl)cc2)CC1 [Hydroxyzine pamoate salt]
0.1 µM (% DMSO) (expanded OPCs; [13]): 223.4 % DMSO | 1 µM (% DMSO) (expanded OPCs; [14]): 190.1 % DMSO | 10 µM (% DMSO) (expanded OPCs; [15]): 134.2 % DMSO | 2 uM (% Quet) [1, 12]: 106.0 % Quet | 10 uM (% Quet) ([1]; test compound at 10 uM, NCC library screen, relative to quetiapine): 16.6 % Quet

CO[C@H]1/C=C/O[C@@]2(C)Oc3c(C)c(O)c4c(O)c(c5c(nc6cc(C)ccn65)c4c3C2=O)NC(=O)/C(C)=C\C=C\[C@H](C)[C@H](O)[C@@H](C)[C@@H](O)[C@@H](C)[C@H](OC(C)=O)[C@@H]1C [Rifaximin]
viability at 0.1 µM (expanded OPCs; [2]): 101% | viability at 1 µM (expanded OPCs; [3]): 69.4% | viability at 10 µM (expanded OPCs; [4]): 21% | activation at 0.4 µM ([1]; Rattus norvegicus, 0.4 uM test compound, relative to quetiapine, read-out: OL differentiation, 0.4 uM (% Quet)): -15.2% | activation at 2 µM [1, 10]: -77.9%

CC(C)(C#N)c1cc(Cn2cncn2)cc(C(C)(C)C#N)c1 [Anastrozole]
viability at 0.1 µM (expanded OPCs; [2]): 87.4% | viability at 1 µM (expanded OPCs; [3]): 92.9% | viability at 10 µM (expanded OPCs; [4]): 80.3% | activation at 2 µM [1, 6]: -29.6% | activation at 10 µM [1, 16]: -33%

CN(C)[C@@H]1C(O)=C(C(=O)NCN2CCCC2)C(=O)[C@@]2(O)C(O)=C3C(=O)c4c(O)cccc4[C@@](C)(O)[C@H]3C[C@@H]12 [Rolitetracycline]
viability at 0.1 µM (expanded OPCs; [2]): 94.4% | viability at 1 µM (expanded OPCs; [3]): 92.4% | viability at 10 µM (expanded OPCs; [4]): 69.8% | activation at 2 µM [1, 6]: 1.5% | activation at 10 µM [1, 16]: -11.1%

OCCN(CCO)c1nc(N2CCCCC2)c2nc(N(CCO)CCO)nc(N3CCCCC3)c2n1 [Dipyridamole]
0.1 µM (% DMSO) (expanded OPCs; [13]): 107.4 % DMSO | 1 µM (% DMSO) (expanded OPCs; [14]): 102.2 % DMSO | 10 µM (% DMSO) (expanded OPCs; [15]): 87.5 % DMSO | activation at 2 µM [1, 6]: 13.5% | activation at 10 µM [1, 16]: -27.3%

CC(=O)OCC(=O)[C@@]1(O)CC[C@H]2[C@@H]3C[C@H](C)C4=CC(=O)C=C[C@]4(C)[C@H]3[C@@H](O)C[C@@]21C [Methylprednisolone acetate]
0.1 µM (% DMSO) (expanded OPCs; [13]): 106.9 % DMSO | 1 µM (% DMSO) (expanded OPCs; [14]): 104.6 % DMSO | 10 µM (% DMSO) (expanded OPCs; [15]): 95.3 % DMSO | activation at 2 µM ([1]; Rattus norvegicus, test compound at 2 uM, MBP expression relative to quetiapine, NCC library screen, read-out: 2 uM (% Quet)): 3.6% | activation at 10 µM ([1]; Rattus norvegicus, test compound at 10 uM, MBP expression relative to quetiapine, NCC library screen, read-out: 10 uM (% Quet)): -59.5%

Reference: article PMC5011342, “A high throughput drug screening assay to identify compounds that promote oligodendrocyte differentiation using acutely dissociated and purified oligodendrocyte precursor cells” (BMC Research Notes, 2016)
